Reference: PubChem BioAssay (NCI)
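GI50 marks 50% less growth. TGI: total growth inhibition.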

Columns and labels:
Experiment in all cases: inhibition of tumour cell growth, NCI panel, 384-well format
U251 glioblastoma = test system: U251 glioblastoma
SN12C renal = test system: SN12C renal
MDA-MB-231 breast = test system: MDA-MB-231 breast
NCI-H460 NSCLC = test system: NCI-H460 NSCLC
COLO 205 colon = test system: COLO 205 colon
SW-620 colon = test system: SW-620 colon
HCC-2998 colon = test system: HCC-2998 colon
MCF7 breast = test system: MCF7 breast
K-562 leukemia = test system: K-562 leukemia
HOP-62 NSCLC = test system: HOP-62 NSCLC
KM12 colon = test system: KM12 colon
ACHN renal = test system: ACHN renal
SNB-75 CNS = test system: SNB-75 CNS
T-47D breast = test system: T-47D breast
DU-145 prostate = test system: DU-145 prostate
UO-31 renal = test system: UO-31 renal
M14 melanoma = test system: M14 melanoma
SF-268 CNS = test system: SF-268 CNS
HT29 colon = test system: HT29 colon
SNB-19 CNS = test system: SNB-19 CNS
LOX IMVI melanoma = test system: LOX IMVI melanoma
NCI-H226 lung = test system: NCI-H226 lung
HS 578T breast = test system: HS 578T breast
786-0 renal = test system: 786-0 renal
OVCAR-5 ovarian = test system: OVCAR-5 ovarian
OVCAR-4 ovarian = test system: OVCAR-4 ovarian
RXF 393 renal = test system: RXF 393 renal
HL-60(TB) leukemia = test system: HL-60(TB) leukemia
OVCAR-8 ovarian = test system: OVCAR-8 ovarian
BT-549 breast = test system: BT-549 breast
EKVX NSCLC = test system: EKVX NSCLC
SK-OV-3 ovarian = test system: SK-OV-3 ovarian
SK-MEL-28 melanoma = test system: SK-MEL-28 melanoma
NCI/ADR-RES ovarian = test system: NCI/ADR-RES ovarian
NCI-H23 lung = test system: NCI-H23 lung
SF-295 CNS = test system: SF-295 CNS
SK-MEL-5 melanoma = test system: SK-MEL-5 melanoma
RPMI-8226 leukemia = test system: RPMI-8226 leukemia
MALME-3M melanoma = test system: MALME-3M melanoma
UACC-257 melanoma = test system: UACC-257 melanoma
A498 renal = test system: A498 renal
OVCAR-3 ovarian = test system: OVCAR-3 ovarian
HCT-116 colon = test system: HCT-116 colon
MDA-MB-435 melanoma = test system: MDA-MB-435 melanoma
CAKI-1 renal = test system: CAKI-1 renal
NCI-H522 lung = test system: NCI-H522 lung
MOLT-4 leukemia = test system: MOLT-4 leukemia
MDA-MB-468 breast = test system: MDA-MB-468 breast
CCRF-CEM leukemia = test system: CCRF-CEM leukemia
HOP-92 NSCLC = test system: HOP-92 NSCLC
PC-3 prostate = test system: PC-3 prostate
SF-539 CNS = test system: SF-539 CNS
IGROV1 ovarian = test system: IGROV1 ovarian
NCI-H322M lung = test system: NCI-H322M lung
SR leukemia = test system: SR leukemia
TK-10 renal = test system: TK-10 renal
A549 NSCLC = test system: A549 NSCLC
HCT-15 colon = test system: HCT-15 colon

Compound: O=C(Nc1cccc2cccnc12)c1ccc(N2C(=O)[C@@H]3[C@H](C2=O)[C@@H]2C=C[C@H]3C2)cc1
- GI50 (U251 glioblastoma): 19.4 µM
- TGI (U251 glioblastoma): > 100 µM
- GI50 (SN12C renal): 47.8 µM
- TGI (SN12C renal): > 100 µM
- GI50 (MDA-MB-231 breast): 36.3 µM
- TGI (MDA-MB-231 breast): > 100 µM
- GI50 (NCI-H460 NSCLC): 20.5 µM
- TGI (NCI-H460 NSCLC): 43.5 µM
- GI50 (COLO 205 colon): 37.6 µM
- TGI (COLO 205 colon): > 100 µM
- GI50 (SW-620 colon): 44.9 µM
- TGI (SW-620 colon): > 100 µM
- GI50 (HCC-2998 colon): 20.1 µM
- TGI (HCC-2998 colon): 41.6 µM
- GI50 (MCF7 breast): 22.9 µM
- TGI (MCF7 breast): > 100 µM
- GI50 (K-562 leukemia): 11.6 µM
- TGI (K-562 leukemia): 25.9 µM
- GI50 (HOP-62 NSCLC): 21.7 µM
- TGI (HOP-62 NSCLC): 74.7 µM
- GI50 (KM12 colon): 32.3 µM
- TGI (KM12 colon): > 100 µM
- GI50 (ACHN renal): 45.1 µM
- TGI (ACHN renal): > 100 µM
- GI50 (SNB-75 CNS): 30 µM
- TGI (SNB-75 CNS): 98.5 µM
- GI50 (T-47D breast): 13 µM
- TGI (T-47D breast): 27.1 µM
- GI50 (DU-145 prostate): 26.2 µM
- TGI (DU-145 prostate): > 100 µM
- GI50 (UO-31 renal): 20.1 µM
- TGI (UO-31 renal): > 100 µM
- GI50 (M14 melanoma): 43.5 µM
- TGI (M14 melanoma): > 100 µM
- GI50 (SF-268 CNS): 41.2 µM
- TGI (SF-268 CNS): > 100 µM
- GI50 (HT29 colon): 14.4 µM
- TGI (HT29 colon): 29.8 µM
- GI50 (SNB-19 CNS): 27.2 µM
- TGI (SNB-19 CNS): > 100 µM
- GI50 (LOX IMVI melanoma): 32.5 µM
- TGI (LOX IMVI melanoma): 89.6 µM
- GI50 (NCI-H226 lung): 18 µM
- TGI (NCI-H226 lung): 50 µM
- GI50 (HS 578T breast): 29.3 µM
- TGI (HS 578T breast): 93.7 µM
- GI50 ([…]-0 renal): 21 µM
- TGI (786-0 renal): 59.9 µM
- GI50 (OVCAR-5 ovarian): 56.8 µM
- TGI (OVCAR-5 ovarian): > 100 µM
- GI50 (OVCAR-4 ovarian): 21.6 µM
- TGI (OVCAR-4 ovarian): > 100 µM
- GI50 (RXF 393 renal): 0.907 µM
- TGI (RXF 393 renal): 24.6 µM
- GI50 (HL-60(TB) leukemia): 12.3 µM
- TGI (HL-60(TB) leukemia): 24.9 µM
- GI50 (OVCAR-8 ovarian): 27.8 µM
- TGI (OVCAR-8 ovarian): 94.6 µM
- GI50 (BT-549 breast): 12.6 µM
- TGI (BT-549 breast): 30.5 µM
- GI50 (EKVX NSCLC): 25.5 µM
- TGI (EKVX NSCLC): > 100 µM
- GI50 (SK-OV-3 ovarian): 57.2 µM
- TGI (SK-OV-3 ovarian): > 100 µM
- GI50 (SK-MEL-28 melanoma): 54.5 µM
- TGI (SK-MEL-28 melanoma): > 100 µM
- GI50 (NCI/ADR-RES ovarian): 12 µM
- TGI (NCI/ADR-RES ovarian): 26.7 µM
- GI50 (NCI-H23 lung): 16.9 µM
- TGI (NCI-H23 lung): 42.6 µM
- GI50 (SF-295 CNS): 17.7 µM
- TGI (SF-295 CNS): 57.4 µM
- GI50 (SK-MEL-5 melanoma): 18.1 µM
- TGI (SK-MEL-5 melanoma): 32.7 µM
- GI50 (RPMI-8226 leukemia): 21 µM
- TGI (RPMI-8226 leukemia): 36.5 µM
- GI50 (MALME-3M melanoma): 27.3 µM
- TGI (MALME-3M melanoma): 88 µM
- GI50 (UACC-257 melanoma): 36.2 µM
- TGI (UACC-257 melanoma): > 100 µM
- GI50 (A498 renal): 25.9 µM
- TGI (A498 renal): > 100 µM
- GI50 (OVCAR-3 ovarian): 25.3 µM
- TGI (OVCAR-3 ovarian): > 100 µM
- GI50 (HCT-116 colon): 38.3 µM
- TGI (HCT-116 colon): > 100 µM
- GI50 (MDA-MB-435 melanoma): 46.3 µM
- TGI (MDA-MB-435 melanoma): > 100 µM
- GI50 (CAKI-1 renal): 28.4 µM
- TGI (CAKI-1 renal): > 100 µM
- GI50 (NCI-H522 lung): 16.4 µM
- TGI (NCI-H522 lung): 32.8 µM
- GI50 (MOLT-4 leukemia): 16 µM
- TGI (MOLT-4 leukemia): 29.8 µM
- GI50 (MDA-MB-468 breast): 3.84 µM
- TGI (MDA-MB-468 breast): 23.6 µM
- GI50 (CCRF-CEM leukemia): 16.8 µM
- TGI (CCRF-CEM leukemia): 42.3 µM
- GI50 (HOP-92 NSCLC): 43.7 µM
- TGI (HOP-92 NSCLC): > 100 µM
- GI50 (PC-3 prostate): 26 µM
- TGI (PC-3 prostate): 70.4 µM
- GI50 (SF-539 CNS): 49.1 µM
- TGI (SF-539 CNS): > 100 µM
- GI50 (IGROV1 ovarian): 32.5 µM
- TGI (IGROV1 ovarian): > 100 µM
- GI50 (NCI-H322M lung): 42 µM
- TGI (NCI-H322M lung): > 100 µM
- GI50 (SR leukemia): 13.5 µM
- TGI (SR leukemia): 32.9 µM
- GI50 (TK-10 renal): 28.7 µM
- TGI (TK-10 renal): > 100 µM
- GI50 (A549 NSCLC): 32.2 µM
- TGI (A549 NSCLC): > 100 µM
- GI50 (HCT-15 colon): 26.1 µM
- TGI (HCT-15 colon): 98.2 µM
